Assay results from US7138361B2, “Herbicidal heterocycles” (E. I. du Pont de Nemours and Company, priority 2000, dated 2006).

Key:
Type in all cases: in vivo
corn (Zea mays) = assay: Test B preemergence
Method in brief: (§1)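 Preemergence: seeds planted and treated with test chemicals in non-phytotoxic solvent with surfactant; postemergence on plants 2–18 cm (1- to 4-leaf stage). Kept in greenhouse 13–15 days, then visually rated against controls on a 0 (no effect) to 100 (complete control) scale.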

[1] = tested on: lambsquarters (Chenopodium album); assay: Test B preemergence
Method in brief: as §1

[2] = tested on: barnyardgrass (Echinochloa crus-galli); assay: Test B preemergence
Method in brief: as §1

[3] = tested on: crabgrass (Digitaria sanguinalis); assay: Test B preemergence
Method in brief: as §1

[4] = tested on: velvetleaf (Abutilon theophrasti); assay: Test B preemergence
Method in brief: as §1

[5] = tested on: cocklebur (Xanthium strumarium); assay: Test B preemergence
Method in brief: as §1

[6] = tested on: morning glory (Ipomoea hederacea); assay: Test B preemergence
Method in brief: as §1

[7] = tested on: giant foxtail (Setaria faberii); assay: Test B preemergence
Method in brief: as §1

rice (Oryza saliva) [8] = assay: Test B preemergence
Method in brief: as §1

[9] = tested on: Surinam grass (Brachiaria decumbens); assay: Test B preemergence
Method in brief: as §1

[10] = tested on: pigweed (Amaranthus retroflexus); assay: Test B preemergence
Method in brief: as §1

Nightshade = assay: Test C preemergence; details: Rate 500 g/ha, visual evaluation after 12 to 14 days
Sunflower [11] = assay: Test C preemergence; details: Rate 500 g/ha, visual evaluation after 12 to 14 days
Sunflower [12] = assay: Test C preemergence; details: Rate 62 g/ha, scale 0 to 100
[13] = tested on: smallflower flatsedge (Cyperus difformis); assay: Test C flooded paddy test; details: for Flatsedge plant response rating: Flooded Paddy, scale 0 to 100, 0 no effect, 100 complete control; for Plant response rating, Flatsedge / Plant response rating (scale 0 to 100), Flatsedge: flooded paddy test; for Plant response rating, Flatsedge: scale 0 to 100 (0 no effect, 100 complete control)
Method in brief: (§2)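 Response on a 0-to-100 scale (no effect to complete control) was assessed by eye versus controls. Plants had reached 2 leaves when treated in flooded paddy conditions. The assessment took place after 12–14 days of greenhouse growth.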

[14] = tested on: barnyardgrass (Echinochloa crus-galli); assay: Test C flooded paddy test; details: for Barnyardgrass plant response rating: Flooded Paddy, scale 0 to 100, 0 no effect, 100 complete control; for Plant response rating, Barnyardgrass / Plant response rating (scale 0 to 100), Barnyardgrass: flooded paddy test; for Plant response rating, Barnyardgrass: scale 0 to 100 (0 no effect, 100 complete control)
Method in brief: as §2

rice (Oryza saliva) [15] = assay: Test C flooded paddy test; details: for Rice plant response rating: Flooded Paddy, scale 0 to 100, 0 no effect, 100 complete control; for Plant response rating, Rice / Plant response rating (scale 0 to 100), Rice: flooded paddy test; for Plant response rating, Rice: scale 0 to 100 (0 no effect, 100 complete control)
Method in brief: as §2

[16] = tested on: duck salad (Heteranthera limosa); assay: Test C flooded paddy test; details: for Ducksalad plant response rating: Flooded Paddy, scale 0 to 100, 0 no effect, 100 complete control; for Plant response rating, Ducksalad / Plant response rating (scale 0 to 100), Ducksalad: flooded paddy test; for Plant response rating, Ducksalad: scale 0 to 100 (0 no effect, 100 complete control)
Method in brief: as §2

[17] = tested on: blackgrass (Alopecurus myosuroides); assay: Test B postemergence
Method in brief: as §1

[18] = tested on: crabgrass (Digitaria sanguinalis); assay: Test B postemergence; details: Rate 125 g/ha, scale 0 to 100, 0 no effect, 100 complete control
Method in brief: as §1

[19] = tested on: cocklebur (Xanthium strumarium); assay: Test B postemergence
Method in brief: as §1

[20] = tested on: wheat (Triticum aestivum); assay: Test B postemergence; details: Rate 125 g/ha, scale 0 to 100, 0 no effect, 100 complete control
Method in brief: as §1

[21] = tested on: giant foxtail (Setaria faberii); assay: Test B postemergence; details: Rate 125 g/ha, scale 0 to 100, 0 no effect, 100 complete control
Method in brief: as §1

wild oat (Avena fatua) = assay: Test B postemergence; details: Rate 125 g/ha, scale 0 to 100, 0 no effect, 100 complete control
Method in brief: as §1

[22] = tested on: pigweed (Amaranthus retroflexus); assay: Test B postemergence; details: Rate 125 g/ha, scale 0 to 100, 0 no effect, 100 complete control
Method in brief: as §1

Sunflower [23] = assay: Test C preemergence; details: Rate 250 g/ha, scale 0 to 100, 0 no effect, 100 complete control
[24] = Preemergence, Rate 500 g/ha, scale 0 to 100, 0 no effect, 100 complete control
[25] = preemergence, Rate 125 g/ha, scale of 0 to 100 where 0 is no effect and 100 is complete control, 13 to 15 days
[26] = Rate 16 g/ha, visually evaluated after 12 to 14 days, 0 = no effect, 100 = complete control
[27] = Rate 62 g/ha, visually evaluated after 12 to 14 days, 0 = no effect, 100 = complete control
[28] = under head Rate 16 g/ha, (own rate not given), after 12 to 14 days
[29] = Rate 125 g/ha, scale 0 to 100, 0 no effect, 100 complete control
[30] = Rate 500 g/ha, scale 0 to 100, 0 is no effect, 100 is complete control, 13 to 15 days

CCC(CC)c1ccn(C2OCN(c3cccc(OC(F)F)c3)C2=O)n1 (stereo not shown) [Compound 131]
80: Rice plant response rating (rice (Oryza saliva) [15]; Rate 250 g/ha) | Plant response rating (scale 0 to 100), Ducksalad [16, 27] | Plant response rating, Pigweed [22]
30: Plant response rating, Cocklebur [5, 24] | Plant response rating, Cocklebur [19, 29]
15: Plant response rating, Rice (rice (Oryza saliva) [15]; Rate 125 g/ha)
20: Plant response rating (0 to 100), Sunflower (Sunflower [11]) | Plant response rating, Sunflower (Sunflower [12]) | Plant response rating (scale 0 to 100), Ducksalad [16, 28] | Plant response rating, Foxtail, Giant [21] | Plant response rating, Wild Oat (wild oat (Avena fatua)) | Plant response rating, Sunflower (Sunflower [23])
70: Plant response rating, Rice (rice (Oryza saliva) [8]; [25]) | Plant response rating (scale 0 to 100), Ducksalad [16, 26] | Plant response rating, Cocklebur [19, 30]
60: Plant response rating (scale 0 to 100), Barnyardgrass [14, 26]
50: Plant response rating, Corn (corn (Zea mays); [24]) | Plant response rating (scale 0 to 100), Barnyardgrass [14, 28]
100: Plant response rating, Lambsquarters [1, 24] | Plant response rating, Lambsquarters [1, 25] | Plant response rating, Barnyardgrass [2, 24] | Plant response rating, Barnyardgrass [2, 25] | Plant response rating, Crabgrass [3, 24] | Plant response rating, Crabgrass [3, 25] | Plant response rating, Foxtail, Giant [7, 24] | Plant response rating, Foxtail, Giant [7, 25] | Plant response rating, Rice (rice (Oryza saliva) [8]; [24]) | Plant response rating, Surinam grass [9, 24] | Plant response rating, Surinam grass [9, 25] | Plant response rating, Pigweed [10, 24] | Plant response rating, Pigweed [10, 25] | Plant response rating (0 to 100), Nightshade (Nightshade) | Flatsedge plant response rating ([13]; Rate 250 g/ha) | Flatsedge plant response rating ([13]; Rate 500 g/ha) | Plant response rating, Flatsedge ([13]; Rate 125 g/ha) | Barnyardgrass plant response rating ([14]; Rate 250 g/ha) | Barnyardgrass plant response rating ([14]; Rate 500 g/ha) | Plant response rating, Barnyardgrass ([14]; Rate 125 g/ha) | Plant response rating (scale 0 to 100), Barnyardgrass [14, 27] | Ducksalad plant response rating ([16]; Rate 250 g/ha) | Ducksalad plant response rating ([16]; Rate 500 g/ha) | Plant response rating, Ducksalad ([16]; Rate 125 g/ha)
40: Plant response rating, Corn (corn (Zea mays); [25]) | Plant response rating, Velvetleaf [4, 24]
0: Plant response rating, Velvetleaf [4, 25] | Plant response rating, Cocklebur [5, 25] | Plant response rating, Morningglory [6, 25] | Plant response rating (scale 0 to 100), Rice (rice (Oryza saliva) [15]; [26]) | Plant response rating (scale 0 to 100), Rice (rice (Oryza saliva) [15]; [27]) | Plant response rating (scale 0 to 100), Rice (rice (Oryza saliva) [15]; [28]) | Plant response rating, Blackgrass [17, 29] | Plant response rating, Blackgrass [17, 30] | Plant response rating, Crabgrass [18] | Plant response rating, Wheat [20]
90: Plant response rating, Morningglory [6, 24] | Plant response rating (scale 0 to 100), Flatsedge [13, 26] | Plant response rating (scale 0 to 100), Flatsedge [13, 27] | Plant response rating (scale 0 to 100), Flatsedge [13, 28] | Rice plant response rating (rice (Oryza saliva) [15]; Rate 500 g/ha)

CC(C)(C)c1ccn(C2OCN(c3cccc(OC(F)F)c3)C2=O)n1 (stereo not shown) [Compound 133]
80: Plant response rating, Pigweed [22]
0: Plant response rating, Corn (corn (Zea mays); [25]) | Plant response rating, Velvetleaf [4, 25] | Plant response rating, Cocklebur [5, 24] | Plant response rating, Cocklebur [5, 25] | Plant response rating, Morningglory [6, 24] | Plant response rating, Morningglory [6, 25] | Plant response rating (0 to 100), Sunflower (Sunflower [11]) | Plant response rating, Sunflower (Sunflower [12]) | Plant response rating, Blackgrass [17, 29] | Plant response rating, Blackgrass [17, 30] | Plant response rating, Wheat [20] | Plant response rating, Foxtail, Giant [21] | Plant response rating, Wild Oat (wild oat (Avena fatua)) | Plant response rating, Sunflower (Sunflower [23])
70: Plant response rating, Rice (rice (Oryza saliva) [15]; Rate 125 g/ha)
60: Plant response rating (scale 0 to 100), Rice (rice (Oryza saliva) [15]; [27])
10: Plant response rating, Cocklebur [19, 29]
90: Plant response rating, Corn (corn (Zea mays); [24]) | Plant response rating, Rice (rice (Oryza saliva) [8]; [25]) | Plant response rating (0 to 100), Nightshade (Nightshade) | Plant response rating, Barnyardgrass ([14]; Rate 125 g/ha) | Plant response rating (scale 0 to 100), Barnyardgrass [14, 27] | Rice plant response rating (rice (Oryza saliva) [15]; Rate 500 g/ha) | Plant response rating, Rice (rice (Oryza saliva) [15]; Rate 250 g/ha)
30: Plant response rating, Cocklebur [19, 30]
40: Plant response rating, Crabgrass [18]
50: Plant response rating (scale 0 to 100), Ducksalad [16, 27]
100: Plant response rating, Lambsquarters [1, 24] | Plant response rating, Lambsquarters [1, 25] | Plant response rating, Barnyardgrass [2, 24] | Plant response rating, Barnyardgrass [2, 25] | Plant response rating, Crabgrass [3, 24] | Plant response rating, Crabgrass [3, 25] | Plant response rating, Foxtail, Giant [7, 24] | Plant response rating, Foxtail, Giant [7, 25] | Plant response rating, Rice (rice (Oryza saliva) [8]; [24]) | Plant response rating, Surinam grass [9, 24] | Plant response rating, Surinam grass [9, 25] | Plant response rating, Pigweed [10, 24] | Plant response rating, Pigweed [10, 25] | Flatsedge plant response rating ([13]; Rate 500 g/ha) | Plant response rating, Flatsedge ([13]; Rate 125 g/ha) | Plant response rating, Flatsedge ([13]; Rate 250 g/ha) | Plant response rating (scale 0 to 100), Flatsedge [13, 27] | Barnyardgrass plant response rating ([14]; Rate 500 g/ha) | Plant response rating, Barnyardgrass ([14]; Rate 250 g/ha) | Ducksalad plant response rating ([16]; Rate 500 g/ha) | Plant response rating, Ducksalad ([16]; Rate 125 g/ha) | Plant response rating, Ducksalad ([16]; Rate 250 g/ha)
